Data from publication PMC10005185, “Structure-guided engineering of a receptor-agonist pair for inducible activation of the ABA adaptive response to drought” (Science Advances, 2023).

What was measured:
[1] = system: Arabidopsis thaliana seedlings (WT Col-0, overexpressing lines, receptor mutants); assay: Seedling establishment assay; assay type: in vivo
Procedure: Seedling establishment was scored as the percentage of seeds that developed green expanded cotyledons and the first pair of true leaves at 5 or 7 days. Seedling establishment assays in the presence of ABA receptor agonists were performed in 24-well plates, where approximately 25 to 35 seeds per well were sown. Each well contained a different treatment. The experiment was repeated at least twice.

[2] = target: T1, ABI1 with AtPYR1 (Arabidopsis thaliana, UniProt O49686); assay: PP2C inhibition assay, ABI1 with AtPYR1; assay type: biochemical; conditions: 1 µM phosphatase:2 µM receptor; read-out: IC50 of ABI1 with AtPYR1
T1 construct: His; made in house
T1 sequence (O49686 whole entry): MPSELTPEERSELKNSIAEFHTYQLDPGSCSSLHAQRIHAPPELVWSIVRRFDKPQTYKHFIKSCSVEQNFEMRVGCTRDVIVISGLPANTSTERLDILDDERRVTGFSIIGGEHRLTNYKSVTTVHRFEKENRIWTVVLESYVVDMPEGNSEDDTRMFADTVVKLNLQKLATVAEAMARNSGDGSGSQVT
T1 sequence (P49597 whole entry partner): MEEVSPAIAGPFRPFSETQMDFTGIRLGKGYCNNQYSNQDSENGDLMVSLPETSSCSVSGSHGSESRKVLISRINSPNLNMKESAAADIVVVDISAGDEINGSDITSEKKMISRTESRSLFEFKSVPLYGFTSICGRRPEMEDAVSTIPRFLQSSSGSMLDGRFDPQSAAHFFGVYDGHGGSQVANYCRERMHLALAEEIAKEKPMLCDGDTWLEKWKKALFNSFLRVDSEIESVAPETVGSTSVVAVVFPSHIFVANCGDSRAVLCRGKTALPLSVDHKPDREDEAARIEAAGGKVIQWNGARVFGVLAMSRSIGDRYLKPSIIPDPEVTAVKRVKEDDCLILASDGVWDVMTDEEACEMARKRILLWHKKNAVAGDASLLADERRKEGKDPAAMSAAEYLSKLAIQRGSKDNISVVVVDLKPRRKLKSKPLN
Procedure: His-tagged receptors and phosphatases were purified using nickel–nitrilotriacetic acid (Ni-NTA) affinity chromatography. Protein integrity was analyzed by SDS–polyacrylamide gel electrophoresis, followed by InstantBlue staining. Phosphatase activity was measured using p-Nitrophenyl Phosphate (pNPP) (25 mM) as substrate, 10 mM MnCl2,1 μM PP2C, and 2 μM of the indicated receptors. Proteins were incubated with the ligands for 10 min at room temperature. pNPP was then added to start the reactions, and the absorbance at 405 nm was monitored for 20 min in a ViktorX5 plate reader. Assays were repeated twice. For dose-response experiments, IC50 values were obtained with GraphPad Prism 9 using a nonlinear regression curve fit. Each ligand concentration was tested in triplicate. Phosphatase activity of ABI1 was measured using RRA(phosphoT)VA peptide as a substrate, as described ([27]). […]
(D) Dose response analysis of iSB09 or ABA-dependent inhibition of ABI1 (blue and black lines, respectively) in presence of either AtPYL1 or AtPYR1. Values (average of duplicates) show PP2C activity after incubation with the indicated concentration of ligand and receptor at 1:2 ratio (1 µM phosphatase:2 µM receptor). […]
whereas with AtPYR1 was 200 nM and 213 nM, for ABA and iSB09, respectively. Ligands were assayed

[3] = target: T2, HAB1 with AtPYL4 (Arabidopsis thaliana, UniProt O80920); assay: PP2C inhibition assay, HAB1 with AtPYL4; assay type: biochemical; conditions: 1 µM phosphatase:2 µM receptor
T2 construct: His; made in house
T2 sequence (Q9CAJ0 179-511): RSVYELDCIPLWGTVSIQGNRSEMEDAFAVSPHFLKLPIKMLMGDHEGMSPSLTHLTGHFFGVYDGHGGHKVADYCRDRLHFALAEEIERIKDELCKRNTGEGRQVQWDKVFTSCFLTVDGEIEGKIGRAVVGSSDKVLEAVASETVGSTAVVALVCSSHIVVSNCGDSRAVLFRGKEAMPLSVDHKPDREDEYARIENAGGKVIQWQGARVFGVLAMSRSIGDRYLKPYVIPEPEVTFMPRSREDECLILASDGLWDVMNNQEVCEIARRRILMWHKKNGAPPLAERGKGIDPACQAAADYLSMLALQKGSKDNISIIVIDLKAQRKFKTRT
T2 sequence (O80920 whole entry): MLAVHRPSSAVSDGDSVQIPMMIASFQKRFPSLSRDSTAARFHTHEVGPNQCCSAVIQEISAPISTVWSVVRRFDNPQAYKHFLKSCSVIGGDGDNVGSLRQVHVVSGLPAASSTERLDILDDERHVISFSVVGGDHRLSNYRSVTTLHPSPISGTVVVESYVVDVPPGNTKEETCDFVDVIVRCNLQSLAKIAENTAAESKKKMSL
Procedure: His-tagged receptors and phosphatases were purified using nickel–nitrilotriacetic acid (Ni-NTA) affinity chromatography. Protein integrity was analyzed by SDS–polyacrylamide gel electrophoresis, followed by InstantBlue staining. Phosphatase activity was measured using p-Nitrophenyl Phosphate (pNPP) (25 mM) as substrate, 10 mM MnCl2,1 μM PP2C, and 2 μM of the indicated receptors. Proteins were incubated with the ligands for 10 min at room temperature. pNPP was then added to start the reactions, and the absorbance at 405 nm was monitored for 20 min in a ViktorX5 plate reader. Assays were repeated twice. For dose-response experiments, IC50 values were obtained with GraphPad Prism 9 using a nonlinear regression curve fit. Each ligand concentration was tested in triplicate. Phosphatase activity of ABI1 was measured using RRA(phosphoT)VA peptide as a substrate, as described ([27]).
Fig. S6. QB lacks bioactivity in tomato whereas iSB09 is
(A) Quantification of the leaf temperature difference at 2 and 5 days after spraying tomato plants with 0.1 % DMSO
(mock- treated control), 10 µM iSB09 or 10 µM QB.
Asterisk indicates p<0.001 (Student’s t test). Values show individual points and average ± SD (n=4 replicates for mock and chemical treatments). (B) IR-images of representative tomato plants at 2 days after being treated with 0.1 % DMSO […]

[4] = system: Arabidopsis thaliana CsPYL1^5m plants; assay: Drought resistance experiments; assay type: in vivo; conditions: 50 μM
Procedure: For drought assays under long-day conditions, seeds from WT Col-0 and pAlligator2-35[…] plants were grown in MS medium for 7 days. Then, seedlings were transferred to individual 0.18-liter pots containing equal amount of moisted soil composed of peat, vermiculite, and perlite at 1:0.5:0.5 ratio (v/v). Plants were grown under long-day conditions in a controlled environment growth chamber at 22°C under 16-hour light/8-hour dark photoperiod under well-watered conditions for 3 weeks. Then, watering was withheld for 14 days. […] The first application was performed the same day the watering was withheld, and the second one was performed 7 days later. Watering was restored and survival rate was measured 6 days after […]. Gravimetric analysis of water loss in pots was performed along the experiment. […] Pots were weighted at 7-day intervals. Pictures of the plants were taken at the beginning of the experiment, 26 days after water deprivation and 12 days after […]. Survival rate and foliar leaf area were measured 12 days after […]. For drought experiments, 6 to 10 plants per genotype and treatment were analyzed in each experiment. The experiment was performed twice.

[5] = system: Arabidopsis thaliana plants (WT Col-0, CsPYL1^5m lines); assay: Whole-plant gas exchange, stomatal conductance (Gs); assay type: in vivo
Procedure: A. thaliana seeds were planted in specific gas exchange pots, where above- and below-ground parts can be separated by glass into 2:1 (v:v) peat:vermiculite mixture. The plants were grown in growth chambers (Snijders Scientific, Drogenbos, Belgium) at 12/12 photoperiod, 23/18°C temperature, 160 μmol m^−2 s^−1 light, and 70% relative humidity and were 23 to 28 days old during gas exchange experiments. Whole-rosette stomatal conductances were recorded with an eight-chamber custom-built temperature-controlled gas exchange device as described before ([72]). Plants were inserted into the measurement cuvettes and allowed to stabilize at standard conditions: ambient CO2, ~420 ppm; air temperature, 24° ± 0.5°C; light, 160 μmol m^−2 s^−1; relative air humidity, 66 ± 3%. For sprayings, plants were removed from gas exchange cuvettes, sprayed with respective solutions, and put back into the cuvettes for stomatal conductance recordings for 56 min. To check the long-term effect of compounds on plants, stomatal conductance measurements were performed about 24 and 48 hours after sprayings. In the meantime, plants were kept in growth chambers as described above. Photographs of plants were taken after the experiment, and leaf rosette area was calculated using ImageJ 1.37v [National Institutes of Health (NIH), USA]. Stomatal conductance for water vapor was calculated with a custom-written program as described ([72]).

[6] = target: CsPYL1^5m:ΔNHAB1 (Citrus sinensis, UniProt A0A067E666, F137I/T135L/T153I/V112L/V168A); assay: biochemical
CsPYL1^5m:ΔNHAB1, sequence (A0A067E666 1-209 V112L/T135L/F137I/T153I/V168A): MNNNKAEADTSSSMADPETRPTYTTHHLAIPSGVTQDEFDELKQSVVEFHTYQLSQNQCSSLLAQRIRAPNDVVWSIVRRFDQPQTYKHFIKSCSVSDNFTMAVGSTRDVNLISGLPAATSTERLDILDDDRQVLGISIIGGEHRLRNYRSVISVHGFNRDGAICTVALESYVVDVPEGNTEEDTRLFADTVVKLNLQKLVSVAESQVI
CsPYL1^5m:ΔNHAB1, sequence (Q9CAJ0 179-511 partner): as the sequence (Q9CAJ0 179-511) above
Procedure: To obtain the Kd values, the data were analyzed using nonlinear least-squares regression using a model considering a single set of binding sites implemented in Origin 7.0 (OriginLab).

Compound: CCn1c(=O)cc(C)c2cc(CNS(=O)(=O)c3ccccc3)ccc21 [iSB09]
- dosage able to inhibit seedling establishment ([1]; WT Col-0): 5 µM
- agonist-induced inhibition of seedling establishment ([1]; mutants lacking functional PYR1 and PYL1, 10 μM iSB09): insensitive
- dosage able to inhibit seedling establishment ([1]; plants that express CsPYL1^5m): 0.5 µM
- IC50 [2]: 213 nM
- IC50 [3]: 330 nM
- drought resistance compared to mock-treated plants ([4]; CsPYL1^5m plants, long-day conditions): markedly enhanced drought resistance
- soil water consumption ([4]; CsPYL1^5m plants, long-day, 10 days after stopping irrigation): 40%
- drought resistance compared to mock-treated plants ([4]; short-day conditions): enhanced resistance to drought
- effect on stomatal conductance (Gs) ([5]; WT, spraying with 5 μM): nonsignificant
- reduction of stomatal conductance (Gs) ([5]; WT, spraying with 20 μM): effective
- duration of the effect on Gs ([5]; transgenic lines, 5 μM): ≥ 48 h
- reduction of Gs 24 and 48 hours after spraying ([5]; transgenic lines, 5 μM): significantly evident
- Kd [6]: 560 nM
